Source: patent publication US4898878A, “Antioxidant thiohistidine compounds” (priority 1987, dated 1990)

Assays:
[1] = target: ovoperoxidase (Strongylocentrotus purpuratus, UniProt O44391); assay: CN--resistant NAD(P)H-O2 oxidoreductase (oxidase) activity of ovoperoxidase, thiol cofactor; assay type: biochemical; conditions: for cofactor for the CN--resistant oxidase reaction: in place of ovothiol
Protocol: NAD(P)H--02 oxidoreductase activity was measured by following the oxidation of reduced pyridine nucleotides spectrophotometrically at 360 nm in a Gilford 420 spectrophotometer. The off-peak wavelength of 360 nm for reduced pyridine nucleotides allowed the use of higher concentrations in a 1.0 cm pathlength cuvette. Assays were conducted in a 1 ml volume containing 50 mM NaCl, 20mM Hepes, 20 mM Tris, at pH 8.0 and 25° C., to which was added for routine assays 0.4 mM NADH, 0.5 mM MnCl2, 1 mM NaCN, 134 nM ovoperoxidase, and the appropriate amount of ovothiol preparation. One unit of activity is defined as the amount of ovothiol needed to stimulate consumption of 1.0 nanomoles NADH/min. […] Assays were initiated with NADH unless otherwise specified.

[2] = system: fertilized sea urchin eggs; assay type: in vitro ADME
Protocol: First, the conditions under which ovothiols A or C are transported into the cells of interest are determined using radioactive ovothiol derivatives. For example, by reacting ovothiol A with ^3 H-formaldehyde and reduction by NaBH4, ovothiol A was converted into ^3 H-ovothiol C. […] The km for OSH uptake appears to be higher than for histidines, although the Vmax may be similar. We measure the kinetics of ovothiol uptake into the cells to be studied, in order to identify optimal conditions for transport. We no only use ^3 H-ovothiol C but also synthesize ^3 H-ovothiol A by using ^14 C--HCHO in the abovedescribed chemical synthesis procedure.

[3] = Reduction of ovothiol disulfide (OSSO) by reduced glutathione; assay type: physicochemical
Protocol: The redox potential of ovothiol was determined, as were the kinetics for its interaction with glutathione and H2 02. The mid-point potential (E^o') was estimated indirectly by determining the equilibrium in reaction with other known thiol-disulfide equilibria, since direct determination of (E^o') for thiols is typically complicated by artifacts. […] Appropriate corrections were made for the mixed disulfides present at different concentrations of ovothiol and glutathione. E^o' (30^o) for ovothiol was 44 mV positive relative to glutathione, or -0.196 V. Thus, the ΔG^o' for the reduction of ovothiol disulfide (OSSO) by reduced glutathione (GSH) is […], so that at equilibrium reduced ovothiol (OSH) predominates in a mixture of equimolar oxidized ovothiol (OSSO) and reduced glutathione (GSH). From a thermodynamic point of view, ovothiol can be maintained almost entirely in the reduced state by GSH, and thus by NADPH via glutathione reductase, without the need for a specific ovothiol reductase. […] Because reduced glutathione reduces ovothiol, a functional ovothiol reductase reaction exists by coupling reactions and [6]. The second order rate constant for ovothiol reduction by glutathione is 88M^-1 S^-1. We calculate that egg glutathione reductase is sufficient to produce 4.1 pmol GSH/min; with an egg GSH content of 0.9 pmol, it would take only 13 seconds for the egg to regenerate its entire GSH content from GSSG, if NADPH were present (which it is after fertilization). […] In other words, reduction of ovothiol is rapid at the concentrations of glutathione and ovothiol of the egg, and an enzymatic "ovothiol reductase" is not required to catalyze reaction.

[4] = system: cultured myoblasts; assay: Toxicity to cultured myoblasts (colony formation, 3H-TdR incorporation); assay type: cell-based; conditions: administered as the disulfide
[5] = Inhibition of pyrogallol autooxidation
Excerpt: The inhibition of the air oxidation of pyrogallol has been used previously as an assay for superoxide dismutase (SOD) (Marklund, S., and G. Marklund, Eur. J. Biochem. 47:469, 1974; Roth, E. F. Jr., and H. S. Gilbert, Anal. Biochem. 137:50, 1984).

[6] = Reduction of Fremy's salt nitroxide radical; conditions: pH 7.0
Excerpt: Fremy's salt (K^+- 03 SN(0^.)SO3^- K^+) is a stable, commercially available nitroxide radical. Reduction of this radical can be followed by UV or ESR. […] In this assay, a relatively large difference was seen between two aromatic thiols, H3 and thiophenol.

[7] = Trapping of tyrosyl radicals: photochemical dityrosine formation
Excerpt: The known photochemical crosslinking of tyrosine (Amado, R., et al., Methods Enzymol. 107:377, 1984; Malencik, D. A., and S. R. Anderson, Biochem. 26:695, 1987; Joschek, H.-I., and S. I. Miller, J. Am. Chem. Soc. 88:3273, 1986) may be used as an assay for tyrosyl radical scavenging ability. This reaction proceeds by photochemical excitation of tyrosine, followed by an ejection of an electron to yield a tyrosyl radical. The ejected electron is apparently scavenged by oxygen, as evidenced by the augmentation of the tyrosine crosslinking rate on addition of SOD (scavenging 02^.-, thus slowing the back reaction of tyrosyl radical and 02^.- to yield tyrosine and 02). The tyrosyl radicals couple with one another to yield dityrosine, which is detected by its characteristic fluorescence. […] This is strong evidence that ovothiol can act as an efficient tyrosyl radical scavenger. This assay is mechanistically relatively simple technique for assaying antioxidants.

[8] = system: xanthine/xanthine oxidase system; assay: Xanthine oxidase-dependent oxyradical production, thiol oxidation; assay type: biochemical
Excerpt: Xanthine oxidase with both acetaldehyde and xanthine as substrates (both xanthine and its product uric acid react with OH^.) are used to determine whether the aromatic thiols or glutathione are oxidized by this reaction, or whether they inhibit cytochrome C reduction (McCord, J. M., and I. Fridovich, J. Biol. Chem. 244:6049-6054, 1969; Crapo, J. D., et al, Methods in Enzymology 530:382-386, 1977). For example, the ovothiol analogue H3 is oxidized by the xanthine/xanthine oxidase system, and that this can be suppressed by up to 50% by addition of SOD. Since GSH is protected only 20% by SOD in this assay (Wefers, H., and H. Sies, Europ. J. Biochem. 137:2936, 1983; Ross, D., et al., Biochem. Biophys. Acta 841:278, 1983), this implies a higher reactivity of 4-mercaptohistidines toward 02^.-. Differences between the reactions with acetaldehyde and xanthine will implicate OH^. in the process.

[9] = system: sea urchin eggs; assay: Toxicity to sea urchin eggs (inhibition of first cellular division after fertilization); assay type: cell-based; conditions: administered as the disulfide
Excerpt: This aspect of the screening program introduces additional complications. For example, certain thiols are toxic to cells (Heinecke, J. W., et al., J. Biol. Chem. 262, 1987; Issels, R., et al., in Superoxide and Superoxide Dismutase in Chemistry, Biology, and Medicine, ed. G. Rotilio, pp. 419-421, Elsevier, N.Y., 1986) because they can autooxidize and produce reactive oxygen intermediates (Misra, H. R., J. Biol. Chem. 249:2151-2155,1974). Thiol toxicity may be due to redox cycling; for example, when cystine is given to cells it damages lipoproteins, apparently by being reduced to cysteine intracellularly then exiting to reoxidize and produce oxygen radicals and cellular damage. When we administered compound H3 (containing the reactive 4-mercaptoimidazole ring without the amino acid side chain) to sea urchin eggs, it was toxic at 2 mM but not at 200 μM (as assessed inhibition of the first cellular division after fertilization). […] We tried compound H3 because we thought it would be permeant, having no charged side chain; we administered it to these cells as the disulfide. We infer that the toxicity was caused by redox cycling, with H3 being taken up, reduced, and the thiol being reoxidized extracellularly to produce reactive oxygen intermediates. […]

[10] = Mid-point redox potential from equilibrium with glutathione thiol-disulfide; assay type: physicochemical; conditions: 30°
Protocol: The redox potential of ovothiol was determined, as were the kinetics for its interaction with glutathione and H2 02. The mid-point potential (E^o') was estimated indirectly by determining the equilibrium in reaction with other known thiol-disulfide equilibria, since direct determination of (E^o') for thiols is typically complicated by artifacts. […] Appropriate corrections were made for the mixed disulfides present at different concentrations of ovothiol and glutathione. E^o' (30^o) for ovothiol was 44 mV positive relative to glutathione, or -0.196 V. Thus, the ΔG^o' for the reduction of ovothiol disulfide (OSSO) by reduced glutathione (GSH) is -0.386 kcal, so that at equilibrium reduced ovothiol (OSH) predominates in a mixture of equimolar oxidized ovothiol (OSSO) and reduced glutathione (GSH). From a thermodynamic point of view, ovothiol can be maintained almost entirely in the reduced state by GSH, and thus by NADPH via glutathione reductase, without the need for a specific ovothiol reductase. […] Because reduced glutathione reduces ovothiol, a functional ovothiol reductase reaction exists by coupling reactions and [6]. The second order rate constant for ovothiol reduction by glutathione is 88M^-1 S^-1. […]

[11] = Non-enzymic direct reaction of thiol with H2O2; assay type: physicochemical; conditions: metal-free solutions containing EDTA; for second order rate constant for reaction with H2O2: non-enzymic
Protocol: The non-enzymic reaction of OSH and H2 02 was measured and compared with GSH reacting with H2 02.
These preliminary studies were done in metal-free solutions containing EDTA, so additional experiments can compare the effect of ions of Fe, Mn, and Cu, as well as certain liganded derivatives such as hematin and vitamin B12, on the reaction. […] Oxidation of ovothiol can be monitored by its absorbance change at 310 nm (Turner et al., 1986) and glutathione by coupling the reaction to glutathione reductase and NADPH oxidation.

[12] = system: sea urchin eggs; assay: First cell division of sea urchin eggs after iodoacetamide treatment; assay type: cell-based; conditions: for cell division: 0.25 mM iodoacetamide
Excerpt: The following biological experiment further implicates ovothiol in protection of eggs from H2 02 produced during the respiratory burst. If ovothiol were important in protection, then its absence should lead to embryonic lethality. […] However, iodoacetamide might have reacted with critical proteins (or other components) required for cell division, so that experiment was not definitive in implicating ovothiol. More recently, we added exogeneous catalase to eggs derivatized with iodoacetamide. Catalase should act as a second mechanism for removing H2 02 and partially compensate for the iodoacetamide treatment. The first cell division was blocked for eggs treated with 1.0 mM iodoacetamide prior to the respiratory burst (7% cleavage vs. 90% of control eggs). With catalase present during the respiratory burst, 70% of IAA-treated eggs divided (and 90% of the controls). Pretreatment with 0.25 mM iodoacetamide decreased cleavage to 75%; with exogenous 0.1 mM H2 02 added, cell division occurred in only 2% of these eggs, and with catalase present in 90%. Control eggs (not treated with iodoacetamide) were unaffected by 0.1 mM H2 02.

[13] = system: xanthine/xanthine oxidase system; conditions: cited from earlier work

ovoperoxidase, sequence (O44391 entry or part of it): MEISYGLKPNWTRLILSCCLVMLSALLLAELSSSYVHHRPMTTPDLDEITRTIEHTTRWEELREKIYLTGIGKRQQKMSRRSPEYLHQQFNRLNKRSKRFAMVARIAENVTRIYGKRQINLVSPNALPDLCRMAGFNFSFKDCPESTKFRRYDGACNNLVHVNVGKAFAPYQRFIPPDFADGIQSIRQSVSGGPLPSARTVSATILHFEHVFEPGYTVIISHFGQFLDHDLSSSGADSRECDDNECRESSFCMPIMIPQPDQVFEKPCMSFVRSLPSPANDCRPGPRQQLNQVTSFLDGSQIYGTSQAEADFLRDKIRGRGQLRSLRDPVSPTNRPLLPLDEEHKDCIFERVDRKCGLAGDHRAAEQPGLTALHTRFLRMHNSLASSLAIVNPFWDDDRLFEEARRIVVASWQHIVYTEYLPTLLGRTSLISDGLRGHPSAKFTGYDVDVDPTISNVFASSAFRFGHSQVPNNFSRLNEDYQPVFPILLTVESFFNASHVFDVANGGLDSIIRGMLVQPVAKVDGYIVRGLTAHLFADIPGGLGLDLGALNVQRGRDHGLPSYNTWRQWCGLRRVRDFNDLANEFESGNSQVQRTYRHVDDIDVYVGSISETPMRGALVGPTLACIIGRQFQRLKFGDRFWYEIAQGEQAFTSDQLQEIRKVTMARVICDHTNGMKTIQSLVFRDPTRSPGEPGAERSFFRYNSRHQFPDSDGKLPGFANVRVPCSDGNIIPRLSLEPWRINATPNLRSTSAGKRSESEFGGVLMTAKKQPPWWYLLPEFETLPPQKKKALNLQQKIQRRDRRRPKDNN

Molecule: CC(C)(COP(=O)(O)OP(=O)(O)OC[C@H]1O[C@@H](n2cnc3c(N)ncnc32)[C@H](O)[C@@H]1OP(=O)(O)O)[C@@H](O)C(=O)NCCC(=O)NCCS [Coenzyme A]
- cofactor for the CN--resistant oxidase reaction [1]: could not be replaced by

Molecule: N[C@@H](Cc1c[nH]cn1)C(=O)O [histidine]
- uptake by fertilized sea urchin eggs [2]: 38 fmol/egg/hr

Molecule: CN(C)[C@@H](Cc1c(SSc2ncn(C)c2C[C@@H](C(=O)O)N(C)C)ncn1C)C(=O)O [OSSO]
- ΔG°' for reduction of ovothiol disulfide (OSSO) by reduced glutathione (GSH) [3]: -0.386 kcal
- t1/2 for reduction of OSSO to OSH ([3]; normal cellular GSH levels): 1.6 s

Molecule: Cc1c(S)ncn1C [H3, 1,5-dimethyl-4-mercaptoimidazole]
- colony formation of cultured myoblasts ([4]; 200 μM): inhibited colony formation
- IC50 ([4]; Myoblast, cultured myoblasts, read-out: half-maximal effect on 3H-TdR incorporation): 15 µM
- effect on air oxidation of pyrogallol [5]: induces a time lag
- rate of reduction of Fremy's salt relative to glutathione [6]: ~40 fold
- rate of reduction of Fremy's salt relative to thiophenol [6]: roughly ten-fold faster
- rate of reduction of Fremy's salt, rank [6]: fastest radical scavenger
- inhibition of photochemical dityrosine formation [7]: strong inhibitor
- effect on dityrosine formation at 1 μM ([7]; 1 μM): slowing the reaction for several minutes
- oxidation by the xanthine/xanthine oxidase system [8]: is oxidized
- suppression of oxidation by addition of SOD ([8]; xanthine/xanthine oxidase): up to 50%
- toxicity to sea urchin eggs at 200 μM ([9]; 200 μM): not
- toxicity to sea urchin eggs at 2 mM ([9]; 2 mM): toxic

Molecule: catalase
- inhibition of the NAD(P)H oxidase activity of ovoperoxidase [1]: inhibited

Molecule: C[N+](C)(C)[C@@H](Cc1c[nH]c(=S)[nH]1)C(=O)[O-] [ergothioneine]
- cofactor for the CN--resistant oxidase reaction [1]: could not be replaced by

Molecule: CN(C)[C@@H](Cc1c(S)ncn1C)C(=O)O [ovothiol C, 1-methyl-N^α N^α -dimethyl-4-thiolhistidine]
- ovothiol concentration giving maximal oxidase activity [1]: 1 mM
- km for uptake compared with histidines [2]: higher
- uptake by fertilized sea urchin eggs [2]: 6 fmol/egg/hr
- second order rate constant for ovothiol reduction by glutathione [3]: 88 M^-1 S^-1
- E°' mid-point potential [10]: -0.196 V
- E°' relative to glutathione (positive) [10]: 44 mV
- rate with H2O2 relative to reduced glutathione [11]: ~2.3 fold
- second order rate constant for reaction with H2O2 [11]: 3.34 M^-1 S^-1
- second order rate constant for reaction with H2O2 ([11]; listed as OSH): 3.3 M^-1 S^-1

Molecule: N[C@@H](CS)C(=O)O [cysteine]
- cofactor for the CN--resistant oxidase reaction [1]: could not be replaced by

Molecule: NC(=O)CI [iodoacetamide]
- cell division ([12]; 0.1 mM H2O2, catalase present): 90%
- cell division ([12]; exogenous 0.1 mM H2O2 added): 2%
- cleavage (first cell division) ([12]; 1.0 mM iodoacetamide prior to respiratory burst): 7%
- eggs divided ([12]; 1.0 mM iodoacetamide, catalase present during respiratory burst): 70%
- cleavage ([12]; pretreatment with 0.25 mM iodoacetamide): 75%

Molecule: Sc1ccccc1 [thiophenol]
- effect on air oxidation of pyrogallol [5]: similar, though not identical

Molecule: N[C@@H](CCC(=O)N[C@@H](CS)C(=O)NCC(=O)O)C(=O)O [GSH, glutathione]
- cofactor for the CN--resistant oxidase reaction [1]: could not be replaced by
- concentration needed for effect, relative to H3 [5]: 50 fold
- effect on air oxidation of pyrogallol [5]: more modest inhibitory effect
- protection by SOD in this assay [13]: 20%
- second order rate constant for reaction with H2O2 [11]: 1.5 M^-1 S^-1
- inhibition of photochemical dityrosine formation [7]: at least an order of magnitude less effective

Molecule: superoxide dismutase
- inhibition of the NAD(P)H oxidase activity of ovoperoxidase [1]: inhibited
